From ChEMBL document CHEMBL1697821, “Development of a phospholipidosis database and predictive quantitative structure-activity relationship (QSAR) models” (Toxicol Mech Methods, 2008)

What follows are molecules tested on Phospholipidosis (assay: Literature-mined public compounds from Kruhlak et al phospholipidosis modelling dataset).

| Compound | Phospholipidosis |
| --- | --- |
| C#C[C@]1(OC(C)=O)CC[C@H]2[C@@H]3CCC4=CC(=O)CC[C@@H]4[C@H]3CC[C@@]21C [NORETHINDRONE ACETATE] | Negative: based on the absence of positive reported data from WMDD |
| CNCCC=C1c2ccccc2CCc2ccccc21 [NORTRIPTYLINE] | Positive: strong inducer confirmed by electron microscopy |
| CO[C@@H]1[C@@H](OC(N)=O)[C@@H](O)[C@H](Oc2ccc3c(O)c(NC(=O)c4ccc(O)c(CC=C(C)C)c4)c(=O)oc3c2C)OC1(C)C [NOVOBIOCIN] | Negative: based on the absence of positive reported data from WMDD |
| CN(C)CCON=C1c2ccccc2CCc2ccccc21 [NOXIPTILINE] | Positive: weak inducer based on presence of foamy macrophages and cytoplasmic vacuolations |
| CC1COc2c(N3CCN(C)CC3)c(F)cc3c(=O)c(C(=O)O)cn1c23 (stereo unspecified) [OFLOXACIN] | Negative: confirmed by electron microscopy |
| Cc1cc2c(s1)Nc1ccccc1N=C2N1CCN(C)CC1 [OLANZAPINE] | Negative: based on the absence of positive reported data from WMDD |
| O=C(O)c1cc(/N=N/c2ccc(O)c(C(=O)O)c2)ccc1O [OLSALAZINE] | Negative: based on the absence of positive reported data from WMDD |
| COc1ccc2[nH]c([S+]([O-])Cc3ncc(C)c(OC)c3C)nc2c1 (stereo unspecified) [OMEPRAZOLE] | Negative: based on the absence of positive reported data from WMDD |
| OCCN1CCN(CCCN2c3ccccc3C=Cc3ccccc32)CC1 [OPIPRAMOL] | Negative: based on the absence of positive reported data from WMDD |
| CC(C)NCC1CCc2cc(CO)c([N+](=O)[O-])cc2N1 (stereo unspecified) [OXAMNIQUINE] | Negative: based on the absence of positive reported data from WMDD |
| C[C@]12COC(=O)C[C@@H]1CC[C@@H]1[C@@H]2CC[C@@]2(C)[C@H]1CC[C@]2(C)O [OXANDROLONE] | Negative: based on the absence of positive reported data from WMDD |
| CC[N+]1(C)[C@@H]2CC(OC(=O)[C@H](CO)c3ccccc3)C[C@H]1[C@@H]1O[C@@H]12.[Br-] (stereo partly specified) [OXITROPIUM BROMIDE] | Negative: based on the absence of positive reported data from WMDD |
| CCN(CC)CCc1nc(-c2ccccc2)no1 [OXOLAMINE] | Negative: based on the absence of positive reported data from WMDD |
| CCn1cc(C(=O)O)c(=O)c2cc3c(cc21)OCO3 [OXOLINIC ACID] | Negative: based on the absence of positive reported data from WMDD |
| CN1CC[C@]23c4c5ccc(O)c4O[C@H]2C(=O)CC[C@@]3(O)[C@H]1C5 [OXYMORPHONE] | Negative: based on the absence of positive reported data from WMDD |
| CC(C)(CO)[C@@H](O)C(=O)NCCC(=O)O [PANTOTHENIC ACID] | Negative: based on the absence of positive reported data from WMDD |
| CCC1(C)OC(=O)N(C)C1=O (stereo unspecified) [PARAMETHADIONE] | Negative: based on the absence of positive reported data from WMDD |
| C#CCN(C)Cc1ccccc1 [PARGYLINE] | Negative: based on the absence of positive reported data from WMDD |
| CCC(=O)c1ccc(O)cc1 [PAROXYPROPIONE] | Negative: based on the absence of positive reported data from WMDD |
| CC1(C)S[C@@H]2[C@H](NC(=O)COc3ccccc3)C(=O)N2[C@H]1C(=O)O [PENICILLIN V] | Negative: based on the absence of positive reported data from WMDD |
| CCCC(C)C1(CC)C(=O)NC(=O)NC1=O (stereo unspecified) [PENTOBARBITAL] | Negative: based on the absence of positive reported data from WMDD |

| Compound | Phospholipidosis |
| --- | --- |
| CC(=O)CCCCn1c(=O)c2c(ncn2C)n(C)c1=O [PENTOXIFYLLINE] | Negative: based on the absence of positive reported data from WMDD |
| CCCN1C[C@H](CSC)C[C@@H]2c3cccc4[nH]cc(c34)C[C@H]21 [PERGOLIDE] | Negative: based on the absence of positive reported data from WMDD |
| C1CCC(C(CC2CCCCN2)C2CCCCC2)CC1 (stereo unspecified) [PERHEXILINE] | Positive: strong inducer confirmed by electron microscopy |
| CCC[C@H](N[C@@H](C)C(=O)N1[C@H](C(=O)O)C[C@@H]2CCCC[C@@H]21)C(=O)OCC [PERINDOPRIL] | Negative: based on the absence of positive reported data from WMDD |
| OCCN1CCN(CCCN2c3ccccc3Sc3ccc(Cl)cc32)CC1 [PERPHENAZINE] | Negative: based on the absence of positive reported data from WMDD |
| NC(=O)NC(=O)Cc1ccccc1 [PHENACEMIDE] | Negative: based on the absence of positive reported data from WMDD |
| CCOc1ccc(NC(C)=O)cc1 [PHENACETIN] | Positive: strong inducer confirmed by electron microscopy |
| Nc1ccc(/N=N/c2ccccc2)c(N)n1 [PHENAZOPYRIDINE] | Negative: based on the absence of positive reported data from WMDD |
| C[C@H]1[C@H](c2ccccc2)OCCN1C [PHENDIMETRAZINE] | Negative: based on the absence of positive reported data from WMDD |
| CC(Oc1ccccc1)C(=O)N[C@@H]1C(=O)N2[C@@H]1SC(C)(C)[C@@H]2C(=O)O (stereo partly specified) [PHENETHICILLIN] | Negative: based on the absence of positive reported data from WMDD |
| CN1CCC2=C(C1)C(c1ccccc1)c1ccccc12 (stereo unspecified) [PHENINDAMINE] | Negative: based on the absence of positive reported data from WMDD |
| O=C1c2ccccc2C(=O)C1c1ccccc1 [PHENINDIONE] | Negative: based on the absence of positive reported data from WMDD |
| CN(C)CCC(c1ccccc1)c1ccccn1 (stereo unspecified) [PHENIRAMINE] | Negative: based on the absence of positive reported data from WMDD |
| CCC1(c2ccccc2)C(=O)NC(=O)NC1=O [PHENOBARBITAL] | Negative: confirmed by electron microscopy |
| O=C1OC(c2ccc(O)cc2)(c2ccc(O)cc2)c2ccccc21 [PHENOLPHTHALEIN] | Negative: based on the absence of positive reported data from WMDD |
| CCC(c1ccccc1)c1c(O)c2ccccc2oc1=O (stereo unspecified) [PHENPROCOUMON] | Negative: based on the absence of positive reported data from WMDD |
| CC(C)(N)Cc1ccccc1 [PHENTERMINE] | Positive: weak inducer based on presence of foamy macrophages and cytoplasmic vacuolations |
| Cc1ccc(N(CC2=NCCN2)c2cccc(O)c2)cc1 [PHENTOLAMINE] | Negative: based on the absence of positive reported data from WMDD |
| CC[C@@H]1C(=O)OC[C@@H]1Cc1cncn1C [PILOCARPINE] | Negative: based on the absence of positive reported data from WMDD |
| CC(C)NCC(O)COc1cccc2[nH]ccc12 (stereo unspecified) [PINDOLOL] | Negative: based on the absence of positive reported data from WMDD |
| CC[N+]1(C)CCCC(OC(=O)C(O)(c2ccccc2)c2ccccc2)C1.[Br-] (stereo unspecified) [PIPENZOLATE BROMIDE] | Negative: based on the absence of positive reported data from WMDD |

| Compound | Phospholipidosis |
| --- | --- |
| CC(C(=O)O)c1ccc2c(c1)Cc1cccnc1O2 (stereo unspecified) [PRANOPROFEN] | Negative: based on the absence of positive reported data from WMDD |
| C[C@]12C=CC(=O)C=C1CC[C@@H]1[C@@H]2[C@@H](O)C[C@@]2(C)[C@H]1CC[C@]2(O)C(=O)COC(=O)CCC(=O)O [PREDNISOLONE HEMISUCCINATE] | Negative: based on the absence of positive reported data from WMDD |
| CCCCC(=O)O[C@]1(C(=O)COC(C)=O)CC[C@H]2[C@@H]3CCC4=CC(=O)C=C[C@]4(C)[C@H]3[C@@H](O)C[C@@]21C [PREDNISOLONE VALERATE ACETATE] | Negative: based on the absence of positive reported data from WMDD |
| CC(C)NC[C@H](O)COc1ccc(O)cc1 [PRENALTEROL] | Negative: based on the absence of positive reported data from WMDD |
| CC(Cc1ccccc1)NCCC(c1ccccc1)c1ccccc1 (stereo unspecified) [PRENYLAMINE] | Positive: weak inducer based on presence of foamy macrophages and cytoplasmic vacuolations |
| CCCN(CCC)S(=O)(=O)c1ccc(C(=O)O)cc1 [PROBENECID] | Negative: based on the absence of positive reported data from WMDD |
| CCN(CC)CCNC(=O)c1ccc(N)cc1 [PROCAINAMIDE] | Negative: confirmed by electron microscopy |
| CCCN(CCC)C(=O)C(CCC(=O)O)NC(=O)c1ccccc1 (stereo unspecified) [PROGLUMIDE] | Negative: based on the absence of positive reported data from WMDD |
| CN(C)CCCN1c2ccccc2Sc2ccccc21 [PROMAZINE] | Positive: weak inducer based on presence of foamy macrophages and cytoplasmic vacuolations |
| CC(CN1c2ccccc2Sc2ccccc21)N(C)C (stereo unspecified) [PROMETHAZINE] | Positive: weak inducer based on presence of foamy macrophages and cytoplasmic vacuolations |
| CC(C)[N+](C)(CCOC(=O)C1c2ccccc2Oc2ccccc21)C(C)C.[Br-] [PROPANTHELINE BROMIDE] | Negative: based on the absence of positive reported data from WMDD |
| CCC(=O)c1ccc2c(c1)N(CC(C)N(C)C)c1ccccc1S2 (stereo unspecified) [PROPIOMAZINE] | Negative: based on the absence of positive reported data from WMDD |
| CCC(=O)O[C@](Cc1ccccc1)(c1ccccc1)[C@H](C)CN(C)C [PROPOXYPHENE] | Negative: based on the absence of positive reported data from WMDD |
| CC(C)NCC(O)COc1cccc2ccccc12 (stereo unspecified) [PROPRANOLOL] | Positive: weak inducer based on presence of foamy macrophages and cytoplasmic vacuolations |
| CCCOC(=O)c1ccc(O)cc1 [PROPYLPARABEN] | Negative: based on the absence of positive reported data from WMDD |
| Cc1ccc2c(-c3ccccc3)nc(=O)n(C(C)C)c2c1 [PROQUAZONE] | Negative: based on the absence of positive reported data from WMDD |
| C[C@@H]1O[C@@H](O[C@@H]2C=C3CC[C@@H]4[C@H](CC[C@]5(C)[C@@H](c6ccc(=O)oc6)CC[C@]45O)[C@@]3(C)CC2)[C@H](O)[C@H](O)[C@H]1O [PROSCILLARIDIN] | Negative: based on the absence of positive reported data from WMDD |
| CNCCCC1c2ccccc2C=Cc2ccccc21 [PROTRIPTYLINE] | Negative: based on the absence of positive reported data from WMDD |
| CC(O)Cn1cnc2c1c(=O)n(C)c(=O)n2C (stereo unspecified) [PROXYPHYLLINE] | Negative: based on the absence of positive reported data from WMDD |
